In US8697732B2, “Pyridine derivatives” (Actelion Pharmaceuticals Ltd., priority 2006, dated 2014) one finds EC50 and Lymphocyte counts data, which are given here for five molecules.

Assay [1] deals with recombinant human S1P1 receptor (Homo sapiens, UniProt P21453). Kind of assay: GTPγS assay to determine EC50 values. It is filed as biochemical. The following applies: 35S-GTPγS binding, membrane preparations of CHO cells expressing recombinant human S1P1 receptor. On the procedure:
GTPγS binding assays are performed in 96 well microtiter plates (Nunc, 442587) in a final volume of 200 μl, using membrane preparations of CHO cells expressing recombinant human S1P1 receptor. Assay conditions are 20 mM Hepes (Fluka, 54461), 100 mM NaCl (Fluka, 71378), 5 mM MgCl2 (Fluka, 63064), 0.1% BSA (Calbiochem, 126609), 1 μM GDP (Sigma, G-7127), 2.5% DMSO (Fluka, 41644), 50 pM ^35S-GTPγS (Amersham Biosciences, SJ1320). The pH is 7.4. Test compounds are dissolved and diluted in 100% DMSO and pre-incubated at room temperature for 30 min in 150 μl of the above assay buffer, in the absence of ^35S-GTPγS. After addition of 50 μl of ^35S-GTPγS, the assay is incubated for 1 h at rt. The assay is terminated by transfer of the reaction mixture to a Multiscreen plate (Millipore, MAHFC1H60) using a cell harvester from Packard Biosciences, and the plates are washed with ice-cold 10 mM Na2HPO4/NaH2PO4 (70%/30%), dried, sealed at the bottom and, after addition of 25 μl MicroScint20 (Packard Biosciences, order#6013621), sealed on the top. Membrane-bound ^35S-GTPγS is measured with a TopCount from Packard Biosciences.
EC50 is the concentration of agonist inducing 50% of the maximal specific ^35S-GTPγS binding. Specific binding is determined by subtracting non-specific binding from maximal binding. Maximal binding is the amount of cpm bound to the Multiscreen plate in the presence of 10 μM of S1P. Non-specific binding is the amount of binding in the absence of an agonist in the assay. […] The EC50 values were determined according to the method described above: […]

In a further assay the test system is circulating lymphocytes. Kind of assay: Assessment of in vivo efficacy: circulating lymphocytes after oral administration. The following applies: 6 h after oral administration of 10 mg/kg to normotensive male Wistar rats, as compared to vehicle-only group. On the procedure:
The efficacy of the compounds of Formula (I) is assessed by measuring the circulating lymphocytes after oral administration of 3 to 30 mg/kg of a compound of Formula (I) to normotensive male Wistar rats. The animals are housed in climate-controlled conditions with a 12 h-light/dark cycle, and have free access to normal rat chow and drinking water. Blood is collected before and 3, 6 and 24 h after drug administration. Full blood is subjected to hematology using Advia Hematology system (Bayer Diagnostics, Zurich, Switzerland).
All data are presented as mean±SEM. Statistical analyses are performed by analysis of variance (ANOVA) using Statistica (StatSoft) and the Student-Newman-Keuls procedure for multiple comparisons. The null hypothesis is rejected when p<0.05.

recombinant human S1P1 receptor, sequence (P21453 whole entry): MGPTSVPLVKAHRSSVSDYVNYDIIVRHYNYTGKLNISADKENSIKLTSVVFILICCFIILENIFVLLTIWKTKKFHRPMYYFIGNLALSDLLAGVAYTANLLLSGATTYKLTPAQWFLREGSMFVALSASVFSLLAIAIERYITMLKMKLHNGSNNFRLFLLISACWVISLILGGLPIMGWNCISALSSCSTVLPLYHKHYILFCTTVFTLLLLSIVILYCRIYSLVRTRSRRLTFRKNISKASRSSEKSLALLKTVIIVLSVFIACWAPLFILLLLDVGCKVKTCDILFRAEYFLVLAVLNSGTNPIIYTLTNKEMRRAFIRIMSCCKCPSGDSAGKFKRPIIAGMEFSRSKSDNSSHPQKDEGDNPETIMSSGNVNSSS

For the molecule `CCc1cc(CCC(=O)c2sc(CC)c3c2CCC(C)(C)C3)cc(C)n1` [Example 4, 1-(3-Ethyl-5,5-dimethyl-4,5,6,7-tetrahydro-benzo[c]thiophen-1-yl)-3-(2-ethyl-6-methyl-pyridin-4-yl)-propan-1-one], the EC50 in assay [1] came out at 4.6 nM.

Take `Cc1cc(-c2nnc(-c3sc(C)c4c3C[C@@H]3[C@H]4C3(C)C)o2)cc(C)n1` [Example 8, 2,6-Dimethyl-4-[5-((1aS,5aR)-1,1,2-trimethyl-1,1a,5,5a-tetrahydro-3-thia-cyclopropa[a]pentalen-4-yl)-[1,3,4]oxadiazol-2-yl]-pyridine]: the EC50 in assay [1] was found to be 3.4 nM.

With `CCc1cc(-c2noc(-c3sc(C)c4c3CC3C4C3(C)C)n2)cc(C)n1` (centres unmarked) [Example 14, 2-Ethyl-6-methyl-4-[5-(1,1,2-trimethyl-1,1a,5,5a-tetrahydro-3-thia-cyclopropa[a]pentalen-4-yl)-[1,2,4]oxadiazol-3-yl]-pyridine], in assay [1], the EC50 was found to be 3.7 nM. `CCc1cc(-c2nnc(-c3sc(C)c4c3C[C@@H]3[C@H]4C3(C)C)o2)cc(C)n1` [Example 5, 2-Ethyl-6-methyl-4-[5-((1aS,5aR)-1,1,2-trimethyl-1,1a,5,5a-tetrahydro-3-thia-cyclopropa[a]pentalen-4-yl)-[1,3,4]oxadiazol-2-yl]-pyridine]: the Lymphocyte counts with circulating lymphocytes is −77%. In the case of `CCc1cc(C=CC(=O)c2sc(C)c3c2CC2C3C2(C)C)cc(C)n1` [Example 1, 3-(2-Ethyl-6-methyl-pyridin-4-yl)-1-((1aS,5aR)-1,1,2-trimethyl-1,1a,5,5a-tetrahydro-3-thia-cyclopropa[a]pentalen-4-yl)-propenone], the concentration giving a half-maximal response (EC50) in assay [1] was 1.3 nM.

What is called EC50 is the concentration at which the effect is half-maximal.
